{"source": "patent US20110117164A1", "about": "“Use of Additive Sites to Control Nitric Oxide Release from Nitric Oxide Donors Contained within Polymers” (priority 2004, published 2011)", "key": {"[1]": {"settings": "in vivo; cited from earlier work"}, "[2]": {"test": "NO release from polymer films/coatings containing NO donor in PBS buffer at 37° C. by chemiluminescence", "format": "physicochemical", "settings": "~5 wt. % in PVC film plasticized with DOS (1:2), PBS buffer, 37° C., no KTpClPB", "protocol": "Thermal stability of diazeniumdiolates. […] Kinetics. […] Use in Hydrophobic Systems.\nIn the absence of the KTpClPB, NO release decreases dramatically after approximately 1 hour. […] The decrease in NO release observed is believed to result from an increase in the pH within the organic polymer film, which decreases the decomposition rate of lipophilic diazeniumdiolates. As water diffuses into the film initiating NO release, secondary amine sites result. The secondary amine sites have a higher pKa than water and therefore deprotonate water to form hydroxide ions. The basic microdomain environment that results within the polymer, in turn, slows further decomposition of the remaining diazeniumdiolates that would generate NO. This retardation may occur as a result of the organic ammonium hydroxide microphases within the polymer, which in turn serves to stabilize the remaining diazeniumdiolates.\nFT-IR were collected on Perken Elmer Spectrum VX. […] Elemental analyses were performed. Reagents. […] NO was purchased from Matheson Gases. […] General NO Addition Procedure. […] The products were finally collected and dried under vacuum. Molar Extinction Coefficients. […] The maximum wavelength and absorbance were collected. […] Kinetics Studies. […] The NO released was measured using chemiluminescence. […] Preparation of Polymer Films Containing Diazeniumdiolates. […] The membranes were covered and allowed to cure overnight. […] Polymerization to Form Boc-protected Diamine Copolymer.\nGeneral Procedure for Deprotection to Form Diamine Copolymer (c). 35 mg of the copolymer (b) was dissolved in 2 mL of dichloromethane and then 200 μL of TFA (trifluoroacetic acid) was added dropwise. The solution was stirred at room temperature for about 3 hours. The reaction mixture was diluted with 20 mL of dichloromethane, and the organic phase was then washed with sodium bicarbonate, water, and brine, and was dried with sodium sulfate. The solvent was evaporated and the resulting copolymer was dried under vacuum overnight. ^1H-NMR was performed to confirm the structure and actual composition of the copolymer. General Procedure for NO Loading to Form Polymer-Based NO Donor (d). 20 mg of the deprotected copolymer (c) was dissolved in 3 mL of dry THF and placed in a high pressure reactor with a stirring bar, and flushed with argon for about 10 minutes. 100% excess of sodium methoxide (with respect to free amine sites) was added and the reactor was closed. The reactor was purged with argon again for several times (e.g. ten times) over a 1 hour period and was charged with NO at 80 psi. The reaction mixture was stirred for 72 hours at room temperature. After the reaction was complete, the copolymer was precipitated with dry hexane under argon. The remaining solvent was removed using a vacuum, and the diazeniumdiolated copolymers (d) were examined by UV-Vis spectrum as well as NOA. This resulting copolymer was stored in sealed vials charged with argon in a freezer. Preparation of Polymer Films Containing Polymer-Based No Donor. Polymer membranes containing the polymer-based NO donor was prepared by dissolving 60.8 mg poly(vinyl chloride) (PVC), 30.4 mg dioctyl sebacate (DOS), and 9.1 mg poly(lactide-co-glycolide) (50:50) (PLGA 50:50) in 1.5 mL of freshly distilled tetrahydrofuran. […] A trilayer film configuration is employed to fabricate films. […] Four hours later the polymer cocktail was cast on top of the PVC layer. After another 4 hours, the PVC solution was cast again as a finish layer. The membrane was covered and allowed to cure overnight. Polymer films containing no additives were prepared in a similar manner. […] NO Release Measurements by Chemiluminescence. All NO measurements were performed using a Sievers Nitric Oxide Analyzer (NOA), model 280. The instrument was calibrated before each experiment using an internal two-point calibration (zero gas and 45 PPM). The flow rate was set to 200 mL/min with a cell pressure of 5.4 torr and an oxygen pressure of 6.0 psig. […]"}, "[3]": {"settings": "for t1/2 (\"apparent\" t1/2 and t1/2): buffer, pH 7.4; for k: first order decomposition, PBS buffer, pH 7.4, 37° C., n > 3", "description": "UV-vis spectra were monitored on a Beckman DU 640B spectrophotometer."}, "[4]": {"settings": "donor and its diamine precursor; back react to potentially toxic nitrosamines; cited from earlier work"}, "[5]": {"test_system": "thrombus formation", "settings": "dispersed in a silicone rubber matrix; cited from earlier work"}, "[6]": {"test": "Thermal gravimetric analysis under nitrogen (thermal stability of diazeniumdiolates)", "format": "physicochemical", "settings": "nitrogen atmosphere"}, "[7]": {"test_system": "platelet activity", "settings": "within a polymer coating on the inner walls of extracorporeal circuits; cited from earlier work"}, "[8]": {"test": "Air stability of isolated intramolecular diazeniumdiolates", "format": "physicochemical", "protocol": "The reaction of NO with 1f yielded a diazeniumdiolate (as determined by UV) that was initially air-stable, but decomposed after 12 hours even with storage at −20° C. […] Thus, the most air-stable intramolecular diazeniumdiolate that could be isolated was that of diamine 1e. Air stable bis-diazeniumdiolates of 1f and 1g may, however, be prepared when an exogenous base such as sodium methoxide is present in the reaction mixture."}, "[9]": {"test_system": "cells after vascular injury", "settings": "cited from earlier work"}}}
{"smiles": "O=C([O-])C1CCCN1[N+]([O-])=N[O-].[Na+].[Na+]", "note": "(centres unmarked) [PROLI/NO]", "values": [{"measurement": "effect when infused into blood", "setting": "[1]", "value": "relieve muscle spasms"}]}
{"smiles": "CNCCCCCCN(C)/[N+]([O-])=N/O", "note": "[Compound 2a, (Z)-1-[N-methyl-N-[6-(N-methylammoniohexyl)amino]]-diazen-1-ium-1,2-diolate]", "values": [{"measurement": "total NO release profile from film without additive", "setting": "[2]", "value": "releases all of its NO in a short period of time"}, {"measurement": "t1/2 (\"apparent\" t1/2 and t1/2)", "setting": "[3]", "value": "1.12 ± 0.012", "unit": "min"}, {"measurement": "k", "setting": "[3]", "value": "0.010 ± 0.0001", "unit": "s⁻¹"}, {"measurement": "leaching from polymer matrix", "setting": "[4]", "value": "tend to leach from the surface of the polymer matrix"}, {"measurement": "effect on thrombus formation", "setting": "[5]", "value": "prevent thrombus formation on the surface of intravascular sensors"}, {"measurement": "TNO loss (stable up to)", "setting": "[6]", "value": 104, "unit": "°C"}, {"measurement": "effect on platelet activity", "setting": "[7]", "value": "greatly reduce platelet activity"}]}
{"smiles": "CCCCCCN(CCCCCC)CCCCCCN", "note": "[Compound 1f, N,N-dihexylhexamethylene diamine]", "values": [{"measurement": "time to decomposition of the initially air-stable diazeniumdiolate", "setting": "[8]; even with storage at −20° C.", "value": 12, "unit": "h"}]}
{"smiles": "CCCCCCCCCCCCN(CCCCCCN)CCCCCCCCCCCC", "note": "[Compound 1g, N,N-didodecylhexamethylene diamine]", "values": [{"measurement": "air stability during work-up", "setting": "[8]; presence of oxygen during the work-up procedure", "value": "immediately decomposes"}]}
{"smiles": "NCCN(CCN)/[N+]([O-])=N/O", "note": "[DETA/NO]", "values": [{"measurement": "effect on cell proliferation after vascular injury", "setting": "[9]", "value": "substantially suppress overproliferation of cells after vascular injury"}]}
{"smiles": "CCCNCCCCCCN(CCC)/[N+]([O-])=N/O", "note": "[Compound 2c, (Z)-1-{N-Propyl-N-[6-(N-propylammoniohexyl)amino]}-diazen-1-ium-1,2-diolate]", "values": [{"measurement": "t1/2 (\"apparent\" t1/2 and t1/2)", "setting": "[3]", "value": "5.32 ± 0.383", "unit": "min"}, {"measurement": "k", "setting": "[3]", "value": "0.0022 ± 0.0001", "unit": "s⁻¹"}, {"measurement": "TNO loss (stable up to)", "setting": "[6]", "value": 104, "unit": "°C"}]}
{"smiles": "CCNCCCCCCN(CC)/[N+]([O-])=N/O", "note": "[Compound 2b, (Z)-1-{N-Ethyl-N-[6-(N-ethylammoniohexyl)amino]}diazen-1-ium-1,2-diolate]", "values": [{"measurement": "t1/2 (\"apparent\" t1/2 and t1/2)", "setting": "[3]", "value": "5.78 ± 0.433", "unit": "min"}, {"measurement": "k", "setting": "[3]", "value": "0.0020 ± 0.0001", "unit": "s⁻¹"}, {"measurement": "TNO loss (stable up to)", "setting": "[6]", "value": 104, "unit": "°C"}]}
{"smiles": "CCCCCNCCCCCCN(CCCCC)/[N+]([O-])=N/O", "note": "[Compound 2e, (Z)-1-{N-Pentyl-N-[6-(N-pentylammoniohexyl)amino]}-diazen-1-ium-1,2-diolate]", "values": [{"measurement": "t1/2 (\"apparent\" t1/2 and t1/2)", "setting": "[3]", "value": "4.65 ± 0.517", "unit": "min"}, {"measurement": "k", "setting": "[3]", "value": "0.0025 ± 0.0001", "unit": "s⁻¹"}, {"measurement": "TNO loss (stable up to)", "setting": "[6]", "value": 104, "unit": "°C"}]}
